Experimental data reported in patent US20240150377A1, “MODULATORS OF CYSTIC FIBROSIS TRANSMEMBRANE CONDUCTANCE REGULATOR” (VERTEX PHARMACEUTICALS INCORPORATED, priority 2020, published 2024).
Read-outs that look alike come from different tables or passages of the source. Values belong to the molecule of their own block, whether it stands above or below them.

Biological target: T1, CFTR (Homo sapiens, UniProt P13569, DEL508-508)
T1 construct: endogenous in cells; host or cells: primary human bronchial epithelial cells from CF subjects (F508del/MF-HBE), differentiated at air-liquid interface
T1 sequence (P13569 with tags, fused parts or gaps DEL508-508): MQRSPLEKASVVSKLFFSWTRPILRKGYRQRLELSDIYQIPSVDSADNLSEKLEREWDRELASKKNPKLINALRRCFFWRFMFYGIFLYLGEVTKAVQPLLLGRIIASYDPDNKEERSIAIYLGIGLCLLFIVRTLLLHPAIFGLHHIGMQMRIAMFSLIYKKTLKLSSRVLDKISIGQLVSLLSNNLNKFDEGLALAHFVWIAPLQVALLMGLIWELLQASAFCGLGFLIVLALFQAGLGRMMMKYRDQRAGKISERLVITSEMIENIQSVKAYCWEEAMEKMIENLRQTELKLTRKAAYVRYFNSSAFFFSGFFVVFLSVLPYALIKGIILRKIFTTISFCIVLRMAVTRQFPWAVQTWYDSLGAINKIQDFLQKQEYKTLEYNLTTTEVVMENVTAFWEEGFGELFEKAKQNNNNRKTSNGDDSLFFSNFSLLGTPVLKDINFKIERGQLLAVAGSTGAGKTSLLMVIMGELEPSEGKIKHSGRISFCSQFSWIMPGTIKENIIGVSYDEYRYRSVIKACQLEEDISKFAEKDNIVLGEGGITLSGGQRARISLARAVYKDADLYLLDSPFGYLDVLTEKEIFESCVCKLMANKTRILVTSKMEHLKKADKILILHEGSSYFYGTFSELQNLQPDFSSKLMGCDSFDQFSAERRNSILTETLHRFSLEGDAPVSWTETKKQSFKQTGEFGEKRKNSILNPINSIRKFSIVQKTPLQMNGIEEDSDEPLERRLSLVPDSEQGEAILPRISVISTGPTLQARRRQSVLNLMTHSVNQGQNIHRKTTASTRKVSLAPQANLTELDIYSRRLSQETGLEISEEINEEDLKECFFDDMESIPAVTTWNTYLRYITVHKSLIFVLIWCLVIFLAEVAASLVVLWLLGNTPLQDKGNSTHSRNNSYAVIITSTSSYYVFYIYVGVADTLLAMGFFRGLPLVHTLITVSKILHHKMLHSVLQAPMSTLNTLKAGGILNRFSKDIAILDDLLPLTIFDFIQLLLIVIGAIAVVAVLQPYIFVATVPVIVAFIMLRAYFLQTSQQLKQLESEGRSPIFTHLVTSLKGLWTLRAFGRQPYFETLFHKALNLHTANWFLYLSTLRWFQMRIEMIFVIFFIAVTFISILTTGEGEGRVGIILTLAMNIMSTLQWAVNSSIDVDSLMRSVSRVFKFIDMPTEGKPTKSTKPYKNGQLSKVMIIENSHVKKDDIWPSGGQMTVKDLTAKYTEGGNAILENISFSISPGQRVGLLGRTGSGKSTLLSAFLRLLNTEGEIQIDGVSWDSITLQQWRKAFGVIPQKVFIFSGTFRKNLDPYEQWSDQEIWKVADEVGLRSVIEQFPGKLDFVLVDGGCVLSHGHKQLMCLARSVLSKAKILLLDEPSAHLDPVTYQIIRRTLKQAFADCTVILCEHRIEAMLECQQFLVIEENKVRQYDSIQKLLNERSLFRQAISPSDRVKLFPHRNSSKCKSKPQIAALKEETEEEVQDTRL
Test: HBE assay: Ussing chamber assay of CFTR-mediated short-circuit currents
Format: cell-based
Settings: for EC50: read-out: HBE EC50
Summary of the method: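 CFTR-mediated Isc (μA/cm²) equals the peak response to apical 20 μM forskolin minus the residual after a 20 μM each BPO/GlyH-101/CFTR inhibitor 172 cocktail, recorded in Ussing chambers at Vhold 0 mV, 37 °C, pH 7.4, with 30 μM apical amiloride. Cells were F508del/MF HBE cultures preincubated 18-24 h with corrector (concentration range or 10 μM) plus 1 μM ivacaftor in 20% human serum.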

[1] = Table 13, read-out: HBE Max Activity (%)
[2] = Table 13, at 10 μM, read-out: HBE Activity at 10 μM (%)
[3] = HBE assay, read-out: HBE Max activity (%)
[4] = Table 12, read-out: HBE Max Activity (%)
[5] = Table 10, read-out: HBE Max activity (%)
[6] = Table 11, read-out: HBE Max Activity (%)
[7] = Table 10, at 10 μM, read-out: HBE activity at 10 (μM) (%)

Compound: Cc1cccc(C)c1-c1cc2nc(n1)NS(=O)(=O)c1cccc(c1)C(=O)N(CC(=O)NC1CCCCC1)[C@H](CC(C)(C)C)CO2 [Compound 205]
activation at 10 µM [2]: > 600%

Compound: Cc1cccc(C)c1-c1cc2nc(n1)NS(=O)(=O)c1cccc(c1)C(=O)N(Cc1ccc(C3CC3)cn1)[C@H](CC(C)(C)C)CO2 [Compound 252]
EC50 (Table 13): < 1 µM
Emax [1]: > 60%

Compound: Cc1cccc(C)c1-c1cc2nc(n1)NS(=O)(=O)c1cccc(c1)C(=O)N(Cc1ncc(OC(C)C)cn1)[C@H](CC(C)C)CO2 [Compound 239]
EC50 (Table 12): 1 to 3 µM
Emax [4]: > 60%

Compound: Cc1cccc(C)c1-c1cc2nc(n1)NS(=O)(=O)c1cccc(c1)C(=O)N(Cc1cccc(OCC(C)(C)C)n1)[C@H](CC(C)(C)C)CO2 [Compound 469]
Emax [5]: > 60%

Compound: Cc1cccc(C)c1-c1cc2nc(n1)NS(=O)(=O)c1cccc(c1)C(=O)N(CC(=O)N1CCCC3(CCC3)C1)[C@H](CC(C)(C)C)CO2 [Compound 169]
activation at 10 µM [2]: > 600%

Compound: COCC1CCCN1c1cccc(CN2C(=O)c3cccc(c3)S(=O)(=O)Nc3nc(cc(-c4c(C)cccc4C)n3)OC[C@H]2CC(C)(C)C)n1 (stereo partly drawn) [Compound 129, (11R)-6-(2,6-Dimethylphenyl)-11-(2,2-dimethylpropyl)-12-[[6-[2-(methoxymethyl)pyrrolidin-1-yl]-2-pyridyl]methyl]-2,2-dioxo-9-oxa-2λ^6-thia-3,5,12,19-tetrazatricyclo[12.3.1.14,8]nonadeca-1(18),4(19),5,7,14,16-hexaen-13-one]
EC50 (Table 10): < 1 µM
activation at 10 µM (read-out: HBE Activity at 10 μM (%)): > 60%
Emax (read-out: HBE Max activity (%)): > 60%

Compound: COCCCNc1cccc(CN2C(=O)c3cccc(c3)S(=O)(=O)Nc3nc(cc(-c4c(C)cccc4C)n3)OC[C@H]2CC(C)(C)C)n1 [Compound 472]
activation at 10 µM [7]: > 60%
Emax [5]: > 60%

Compound: Cc1cccc(C)c1-c1cc2nc(n1)NS(=O)(=O)c1cccc(c1)C(=O)N(Cc1ccc(-c3ccccc3)cn1)[C@H](CC(C)(C)C)CO2 [Compound 476]
HBE Max activity (%) (Table 10): +++ (+++ is >60%)
EC50 (Table 10): 1 to 3 µM

Compound: CC(=O)N1CCN(c2cccc(CN3C(=O)c4cccc(c4)S(=O)(=O)Nc4nc(cc(-c5c(C)cccc5C)n4)OC[C@H]3CC(C)(C)C)n2)CC1 [Compound 253]
activation at 10 µM [2]: > 600%

Compound: COC[C@@H]1CCCN1c1cncc(CN2C(=O)c3cccc(c3)S(=O)(=O)Nc3nc(cc(-c4c(C)cccc4C)n3)OC[C@H]2CC(C)(C)C)n1 [Compound 273]
EC50 (Table 12): < 1 µM
Emax [4]: > 60%

Compound: Cc1cccc(C)c1-c1cc2nc(n1)NS(=O)(=O)c1cccc(c1)C(=O)N(Cc1ccn(C3CCCC3)n1)[C@H](CC(C)(C)C)CO2 [Compound 460]
EC50 (Table 12): < 1 µM
Emax [4]: > 60%

Compound: Cc1cccc(C)c1-c1cc2nc(n1)NS(=O)(=O)c1cccc(c1)C(=O)N(Cc1ccc(-c3c(C)n[nH]c3C)cn1)[C@H](CC(C)(C)C)CO2 [Compound 298]
EC50 (Table 10): 1 to 3 µM
Emax [5]: > 60%

Compound: Cc1cnc(CN2C(=O)c3cccc(c3)S(=O)(=O)Nc3nc(cc(-c4c(C)cccc4C)n3)OC[C@H]2CC(C)(C)C)nc1N(C)C1CCCC1 [Compound 329]
activation at 10 µM (Table 12, at 10 μM, read-out: HBE Activity at 10 μM (%)): > 600%

Compound: Cc1cccc(C)c1-c1cc2nc(n1)NS(=O)(=O)c1cccc(c1)C(=O)N(CC(=O)NC1CCC(C)(C)CC1)[C@H](CC(C)(C)C)CO2 [Compound 179]
activation at 10 µM [2]: > 600%

Other lines, results leading:

EC50 (Table 13): < 1 µM
Emax [1]: > 60%
Compound: Cc1cccc(C)c1-c1cc2nc(n1)NS(=O)(=O)c1cccc(c1)C(=O)N(Cc1ncc(Cl)cc1F)[C@H](CC(C)(C)C)CO2 [Compound 1111]

EC50 (HBE assay): < 1 µM
Emax [3]: > 60%
Compound: Cc1cccc(C)c1-c1cc2nc(n1)NS(=O)(=O)c1cccc(c1)C(=O)N(Cc1cncc(N(C)C3CCCC3)n1)[C@H](CC(C)(C)C)CO2 [Compound 1387]

activation at 10 µM (HBE assay, 10 μM, read-out: HBE Activity at 10 μM (%)): > 60%
Compound: CCC1(CO)CCCN1c1cccc(CN2C(=O)c3cccc(c3)S(=O)(=O)Nc3nc(cc(-c4c(C)cccc4C)n3)OC[C@H]2CC(C)(C)C)n1 (stereo in doubt) [Compound 1458]

EC50 (Table 13): 1 to 3 µM
Emax [1]: > 60%
Compound: Cc1cccc(C)c1-c1cc2nc(n1)NS(=O)(=O)c1cccc(c1)C(=O)N(Cc1ccc([C@@H](O)CO)cn1)[C@H](CC(C)(C)C)CO2 [Compound 1151]

EC50 (HBE assay): < 1 µM
Emax [3]: > 60%
Compound: Cc1cccc(C)c1-c1cc2nc(n1)NS(=O)(=O)c1cccc(c1)C(=O)N(Cc1ncc(N3CC[C@H]3C)cn1)[C@H](CC(C)(C)C)CO2 [Compound 1405]

EC50 (Table 12): < 1 µM
Emax [4]: > 60%
Compound: Cc1cccc(C)c1-c1cc2nc(n1)NS(=O)(=O)c1cccc(c1)C(=O)N(Cc1cccc(N3CCOC(C)(C)C3)n1)[C@H](CC(C)(C)C)CO2 [Compound 872]

EC50 (Table 13): < 1 µM
Emax [1]: > 60%
Compound: Cc1cccc(C)c1-c1cc2nc(n1)NS(=O)(=O)c1cccc(n1)C(=O)N(Cc1cccc(N(C)C3CC4(CC4)C3)n1)[C@H](CC(C)(C)C)CO2 [Compound 1143]

EC50 (Table 11): < 1 µM
Emax [6]: > 60%
Compound: Cc1cccc(C)c1-c1cc2nc(n1)NS(=O)(=O)c1cccc(c1)C(=O)N(Cc1cncc(N(C)C)n1)[C@H](CC(C)(C)C)CO2 [Compound 885]

EC50 (Table 10): < 1 µM
Emax [5]: > 60%
Compound: Cc1cccc(C)c1-c1cc2nc(n1)NS(=O)(=O)c1cccc(c1)C(=O)N(Cc1cccc(N3CCCCC3)n1)[C@H](CC(C)(C)C)CO2 [Compound 489]

EC50 (HBE assay): < 1 µM
Emax [3]: > 60%
Compound: CC[C@@H](C)Oc1cnc(CN2C(=O)c3cccc(c3)S(=O)(=O)Nc3nc(cc(-c4c(C)cccc4C)n3)OC[C@H]2CC(C)C)nc1 [Compound 1391]

EC50 (HBE assay): < 1 µM
Emax [3]: > 60%
Compound: COCCN(c1cccc(CN2C(=O)c3cccc(c3)S(=O)(=O)Nc3nc(cc(-c4c(C)cccc4C)n3)OC[C@H]2CC(C)(C)C)n1)C1CC2(CC2)C1 [Compound 1393]

EC50 (Table 12): < 1 µM
Emax [4]: > 60%
Compound: Cc1cccc(C)c1-c1cc2nc(n1)NS(=O)(=O)c1cccc(c1)C(=O)N(Cc1ncc(N3CCC(C)(C)CC3)cc1F)[C@H](CC(C)(C)C)CO2 [Compound 522]

EC50 (Table 10): < 1 µM
Emax [5]: > 60%
Compound: CNC(=O)COc1ccccc1CN1C(=O)c2cccc(c2)S(=O)(=O)Nc2nc(cc(-c3c(C)cccc3C)n2)OC[C@H]1CC(C)(C)C [Compound 776]

EC50 (HBE assay): < 1 µM
Emax [3]: > 60%
Compound: Cc1cccc(C)c1-c1cc2nc(n1)NS(=O)(=O)c1cccc(c1)C(=O)N(Cc1ncc(OC3CC(C)(C)C3)cn1)[C@H](CC1CC1)CO2 [Compound 1454]

EC50 (Table 10): < 1 µM
Emax [5]: > 60%
Compound: Cc1cccc(C)c1-c1cc2nc(n1)NS(=O)(=O)c1cccc(c1)C(=O)N(CC1CCN(c3ccccn3)CC1)[C@H](CC(C)(C)C)CO2 [Compound 493]

EC50 (Table 11): < 1 µM
Emax [6]: > 60%
Compound: Cc1cccc(C)c1-c1cc2nc(n1)NS(=O)(=O)c1cccc(c1)C(=O)N(Cc1nccc(N(C)C)n1)[C@H](CC(C)(C)C)CO2 [Compound 649]

EC50 (HBE assay): < 1 µM
Emax [3]: > 60%
Compound: COCCN(CC(C)C)c1cncc(CN2C(=O)c3cccc(c3)S(=O)(=O)Nc3nc(cc(-c4c(C)cccc4C)n3)OC[C@H]2CC(C)(C)C)n1 [Compound 1418]

EC50 (HBE assay): < 1 µM
Emax [3]: > 60%
Compound: Cc1cccc(C)c1-c1cc2nc(n1)NS(=O)(=O)c1cccc(c1)C(=O)N(Cc1ncc(N3CCC(F)(F)C3)cn1)[C@H](CC(C)(C)C)CO2 [Compound 1379]

EC50 (Table 11): 1 to 3 µM
Emax [6]: > 60%
Compound: Cc1cccc(C)c1-c1cc2nc(n1)NS(=O)(=O)c1cccc(c1)C(=O)N(Cc1ncc(N3CC4CC4C3)cn1)[C@H](CC(C)(C)C)CO2 (stereo partly shown) [Compound 717]

activation at 10 µM [7]: > 60%
Compound: CNC(=O)COc1ccccc1CN1C(=O)c2cccc(c2)S(=O)(=O)Nc2nc(cc(-c3c(C)cccc3C)n2)OC[C@H]1CC(C)(C)C [Compound 775]
